One test has as its target T1, GIPR (Homo sapiens, UniProt P48546).
T1 construct: expressed in transfected cells; host or cells: HEK293 (pcDNA3.1, G418-selected single clone)
T1 sequence (P48546 22-466): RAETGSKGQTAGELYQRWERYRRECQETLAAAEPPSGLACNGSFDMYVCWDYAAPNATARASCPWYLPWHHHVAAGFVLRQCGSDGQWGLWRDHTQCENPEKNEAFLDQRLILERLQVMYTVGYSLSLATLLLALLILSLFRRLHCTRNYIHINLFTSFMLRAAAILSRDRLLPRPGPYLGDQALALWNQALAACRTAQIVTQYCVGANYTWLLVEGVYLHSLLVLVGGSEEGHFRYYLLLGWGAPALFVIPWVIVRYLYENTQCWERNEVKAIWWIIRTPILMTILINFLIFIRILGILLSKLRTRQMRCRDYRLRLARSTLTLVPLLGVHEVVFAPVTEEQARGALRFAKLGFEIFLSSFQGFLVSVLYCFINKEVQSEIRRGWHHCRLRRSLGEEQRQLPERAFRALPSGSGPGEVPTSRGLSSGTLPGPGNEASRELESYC
Description: cAMP assay, in vitro activity of polypeptides, HEK293-GIPR cells. To be noted: read-out: Ec50(nM) of the peptide GIPR. Format: cell-based. How it is done:
(§1) The digested product was electrophoresed on 1% agarose gel and the target band was cut out with a clean blade, then a gel recovery kit was used to recover the target fragment. The specific experimental operations are carried out according to the kit instructions; • 3) The target fragment enzymatic digestion recovery product and vector plasmid pcDNA3.1 fragment were connected through T4 ligase and transformed into DH5a competent cells, then single colonies were isolated by spreading on plates, and the transformants were selected and expanded for enzyme digestion verification and sequencing verification. • 4) 200 mL of the bacterial liquid obtained in inoculation step 3) and verified by sequencing to contain the fusion protein of the target product was used for plasmid extraction. The kit used was PureLink HiPure Plasmid Maxiprep Kit, and according to the instructions. […] Finally, the ethanol precipitation method was used to recover the plasmid. • 5) The host cells were HEK293, one day before transfection, the cells were spread into a 6-well plate at a density of 2×10^6 cells/well, and the addition volume was 1 mL/well.
(§2) Using a cAMP detection kit (Cisbio, 62AM6PEC) to detect cAMP produced by the recipient cells according to the steps described in the operating instructions. […] If the mixture was not completely melted within 1.5 min, the cells were added dropwise to a 15 mL centrifuge tube containing 8 mL warm culture medium on a clean bench, then centrifuged at 900 rpm for 5 min, the supernatant was discarded, and the cells were re-suspended with 1 mL complete culture medium (15 times by pipetting).
A general note: Changes in cAMP serve as a functional read-out for many G protein-coupled receptors.

For the next test, the target named is GLP-1R (Homo sapiens, UniProt P43220). Description: cAMP assay, in vitro activity of polypeptides, HEK293-GLP-1R cells. The format is cell-based. More on the design: expressed in transfected cells; host or cells: HEK293 (pcDNA3.1, G418-selected single clone). Conditions: for EC50: HEK293-GLP-1R, cAMP, read-out: Ec50(nM) of the peptide GLP-1R. How it is done: as §1, §2
GLP-1R, sequence (P43220 24-463, species assumed): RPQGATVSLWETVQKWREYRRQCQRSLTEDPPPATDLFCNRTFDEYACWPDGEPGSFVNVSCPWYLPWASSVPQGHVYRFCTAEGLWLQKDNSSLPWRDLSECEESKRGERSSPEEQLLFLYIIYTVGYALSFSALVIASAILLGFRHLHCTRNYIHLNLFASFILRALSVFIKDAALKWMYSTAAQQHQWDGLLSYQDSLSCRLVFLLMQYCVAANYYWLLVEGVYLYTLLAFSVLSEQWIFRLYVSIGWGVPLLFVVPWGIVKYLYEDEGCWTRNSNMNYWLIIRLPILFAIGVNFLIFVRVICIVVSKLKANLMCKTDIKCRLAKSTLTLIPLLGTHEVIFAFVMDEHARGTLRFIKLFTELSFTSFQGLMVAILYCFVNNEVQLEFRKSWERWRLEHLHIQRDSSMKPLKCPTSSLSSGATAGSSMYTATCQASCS

Where no end group is shown, it is not given here.

The results in this text go back to patent US20250223331A1, “GLP-1/GIP DUAL-TARGETED POLYPEPTIDE AND FUSION PROTEIN AND APPLICATIONS THEREOF” (SUNSHINE LAKE PHARMA CO., LTD., priority 2021, published 2025).

By EC50 is commonly meant the concentration giving half of the maximal effect.

With “YSEGTFTSDYSILLDKIAQQDFVEWLLAGGPSSGAPPPS [CG133, YSEGTFTSDYSILLDKIAQQDFVEWLLAG GPSSGAPPPS]”, the EC50 stood at 0.017 nM on GIPR and 8.18 nM at GLP-1R. Besides, the “GLP-1R agonistic activity” value on GLP-1R (peptides) is recorded as “weaker GLP-1R agonistic activities”.

Turning to “YSEGTFTSDYSILLDKIAQREFVQWLIAGGPSSGAPPPS [CG124, YSEGTFTSDYSILLDKIAQREFVQWLIAG GPSSGAPPPS]”, the figures for the EC50 at GIPR and at GLP-1R were 0.041 nM and 0.232 nM, respectively.

As to “YSEGTFTSDYSILLDKIAQRAFIEWLLAGGPSSGAPPPS [CG121, YSEGTFTSDYSILLDKIAQRAFIEWLLAG GPSSGAPPPS]”, the EC50 at GIPR is 0.018 nM; on GLP-1R, 0.322 nM.

For the sequence “YSEGTFTSDYSILLDKIAQRAFVQWLIAGGPSSGAPPPS [CG125, YSEGTFTSDYSILLDKIAQRAFVQWLIAG GPSSGAPPPS]”, the EC50 came out at 0.073 nM at GIPR and 0.205 nM on GLP-1R.

In the case of “YSEGTFTSDYSILLDKKAQQDFIEWLLAGGPSSGAPPPS [CG136, YSEGTFTSDYSILLDKKAQQDFIEWLLAG GPSSGAPPPS]”, the EC50 on GIPR stood at 0.05 nM; on GLP-1R it was 1.11 nM.

On to “YSEGTFTSDYSILLDKIAQREFVQWLLAGGPSSGAPPPS [CG123, YSEGTFTSDYSILLDKIAQREFVQWLLAG GPSSGAPPPS]”, for which the EC50 was determined as 0.044 nM on GIPR and 0.879 nM on GLP-1R.

Consider “YSEGTFTSDYSILLDKKAQQDFIEWLIAGGPSSGAPPPS [CG137, YSEGTFTSDYSILLDKKAQQDFIEWLIAG GPSSGAPPPS]”, for which the EC50 turned out to be 0.061 nM on GIPR and 0.25 nM on GLP-1R.
